What was measured:
NOD2 = biological target: T1, NOD2 (Homo sapiens, UniProt Q9HC29); test: NOD2-HEK-Blue NF-κB reporter cell activation assay (NOD2-expressing HEK-293T cells); format: cell-based; conditions: for EC50: calculated, three-parameter dose-response nonlinear regression, read-out: pEC50 (μM), dose-dependent activation of NOD2-expressing HEK-293T cells (converted)
T1 construct: host or cells: HEK-293T-derived HEK-Blue NF-kB/SEAP reporter cells
Procedure, shortened: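 HEK-Blue NOD2 reporter cells in HEK-Blue detection medium were exposed to compounds for 8-10 h at 37° C. (or 16 h in complete DMEM, then QUANTI-Blue for 2-4 h). Secreted alkaline phosphatase read by absorbance at 630 nm; pEC50 from three-parameter dose-response nonlinear regression.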

[1] = system: intratumoral immune cells; test: Single cell transcriptomic profiling of intratumoral immune cells; format: in vivo, mice; conditions: tumors treated with anti-PD-L1 and compound
Source text: N-arylpyrazole NOD2 agonist enhances intratumoral immune responses in vivo. The anti-tumor mechanism of action of the N-arylpyrazole NOD2 agonist in vivo was then further characterized. Infiltrating leukocytes from tumors treated with anti-PD-L1 and either TT030 or TT030-ent were harvested via cell sorting and subjected to single cell transcriptomic profiling (FIG. 4A and FIG. 8). After assignment of cell clusters using well-defined markers, the overall composition of intratumoral immune cells were examined by comparing the relative proportions of each cell cluster. […] In fact, overall expression of both Ifng and Gzmb were elevated in the TT030 sample compared to the enantiomer control (FIG. 9B), indicating heighted CD8^+ T cell activation and effector function. […] To better characterize changes to downstream signaling caused by TT030, differential gene expression and gene set enrichment analyses were performed.
FIG. 4(A-E). NOD2 agonist TT030 remodels intratumoral immune cell composition and elicits broad inflammatory signaling. A, Uniform manifold approximation and projection (UMAP) reduction of single intratumoral immune cells harvested from α-PD-L1 and TT030- and TT030-ent-treated tumors. B-C, Heatmap and quantification of the relative composition of intratumoral immune cell types divided by clusters. D, Quantification of the number of clusters that were enriched for individual Molecular Signature Database (MSigDB) hallmark gene sets. E, Bubble plot for enrichment of curated REACTOME gene sets involving NF-κB or interleukin 1 across cell clusters. For relative composition, absolute cell counts were analyzed by Pearson's chi-square test for count data with Holm's correction for multiple comparisons; exact P values are given. […] NOD activation assays were analyzed using a one-way ANOVA with Dunnett's multiple comparisons test compared to the DMSO control.
FIG. 9(A-B). […] QQ plots were analyzed using a two-sided Wilcoxon rank-sum test; exact P values are given.

T1 sequence (Q9HC29 whole entry): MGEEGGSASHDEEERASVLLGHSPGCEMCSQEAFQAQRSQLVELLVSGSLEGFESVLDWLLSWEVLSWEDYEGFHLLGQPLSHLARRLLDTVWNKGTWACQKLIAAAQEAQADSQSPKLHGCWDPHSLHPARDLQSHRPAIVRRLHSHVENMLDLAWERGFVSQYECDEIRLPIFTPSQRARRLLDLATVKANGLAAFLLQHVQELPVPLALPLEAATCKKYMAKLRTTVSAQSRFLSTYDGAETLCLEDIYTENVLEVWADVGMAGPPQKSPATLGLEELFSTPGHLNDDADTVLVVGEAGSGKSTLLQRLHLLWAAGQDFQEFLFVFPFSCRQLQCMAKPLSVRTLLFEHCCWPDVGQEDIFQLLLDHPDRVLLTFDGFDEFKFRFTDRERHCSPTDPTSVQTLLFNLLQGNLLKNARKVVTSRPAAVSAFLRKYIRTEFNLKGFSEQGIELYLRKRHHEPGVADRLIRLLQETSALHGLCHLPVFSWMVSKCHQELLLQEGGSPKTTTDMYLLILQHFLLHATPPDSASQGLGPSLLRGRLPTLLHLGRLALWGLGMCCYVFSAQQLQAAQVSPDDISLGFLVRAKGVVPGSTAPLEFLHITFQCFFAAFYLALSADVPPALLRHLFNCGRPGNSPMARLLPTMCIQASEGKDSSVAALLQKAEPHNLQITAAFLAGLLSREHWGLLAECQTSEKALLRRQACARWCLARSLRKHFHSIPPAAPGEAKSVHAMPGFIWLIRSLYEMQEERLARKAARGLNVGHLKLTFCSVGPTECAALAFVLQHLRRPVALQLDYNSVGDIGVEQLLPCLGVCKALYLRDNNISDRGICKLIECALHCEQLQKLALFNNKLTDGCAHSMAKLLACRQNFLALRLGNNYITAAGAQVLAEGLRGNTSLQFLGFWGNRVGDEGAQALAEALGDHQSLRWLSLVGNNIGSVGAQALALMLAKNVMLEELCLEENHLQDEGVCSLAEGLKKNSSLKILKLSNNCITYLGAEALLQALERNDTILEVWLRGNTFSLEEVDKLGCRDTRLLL

EC50 (NOD2) | lipophilic ligand efficiency (LLE) (NOD2; calculated pEC50 vs. clogP, FIG. 2G) | Compound | Inflammatory, immune activation and metabolic pathways (IFNα, IFNγ response, NF-κB signaling), gene set enrichment [1] | Amount of T cell cluster expressing Cd8a, Ifng, Gzmb and Mki67 ([1]; vs. TT030-ent) | Overall expression of Ifng and Gzmb ([1]; vs. enantiomer control)
0.126 µM |  | CC(=O)N[C@H]1C(O)O[C@H](CO)[C@@H](O)[C@@H]1O[C@H](C)C(=O)N[C@@H](C)C(=O)N[C@H](CCC(=O)O)C(N)=O (stereo partly drawn) [MDP, (4R)-4-((2S)-2-((2R)-2-(((3R,4R,5S,6R)-3-acetamido-2,5-dihydroxy-6-(hydroxymethyl)tetrahydro-2H-pyran-4-yl)oxy)propanamido)propanamido)-5-amino-5-oxopentanoic acid, reference compound] |  |  | 
0.251 µM | 6.81 | CCOC(=O)CC[C@@H](NC(=O)[C@@H](NC(=O)c1c(C)nn(-c2cc[nH]c(=O)c2)c1C)C(C)C)C(=O)OCC [TT030, Diethyl (3,5-dimethyl-1-(2-oxo-1,2-dihydropyridin-4-yl)-1H-pyrazole-4-carbonyl)-L-valyl-D-glutamate] | upregulated | significant increase | elevated
